One block for each compound: values may come before it.
Experiments:
CARM1/PRMT4 = biological target: T1, CARM1/PRMT4 (Homo sapiens, UniProt Q86X55); test: IC50 and nH determination, CARM1; format: biochemical; conditions: ratio of IC50 values
T1 sequence (Q86X55 1-608): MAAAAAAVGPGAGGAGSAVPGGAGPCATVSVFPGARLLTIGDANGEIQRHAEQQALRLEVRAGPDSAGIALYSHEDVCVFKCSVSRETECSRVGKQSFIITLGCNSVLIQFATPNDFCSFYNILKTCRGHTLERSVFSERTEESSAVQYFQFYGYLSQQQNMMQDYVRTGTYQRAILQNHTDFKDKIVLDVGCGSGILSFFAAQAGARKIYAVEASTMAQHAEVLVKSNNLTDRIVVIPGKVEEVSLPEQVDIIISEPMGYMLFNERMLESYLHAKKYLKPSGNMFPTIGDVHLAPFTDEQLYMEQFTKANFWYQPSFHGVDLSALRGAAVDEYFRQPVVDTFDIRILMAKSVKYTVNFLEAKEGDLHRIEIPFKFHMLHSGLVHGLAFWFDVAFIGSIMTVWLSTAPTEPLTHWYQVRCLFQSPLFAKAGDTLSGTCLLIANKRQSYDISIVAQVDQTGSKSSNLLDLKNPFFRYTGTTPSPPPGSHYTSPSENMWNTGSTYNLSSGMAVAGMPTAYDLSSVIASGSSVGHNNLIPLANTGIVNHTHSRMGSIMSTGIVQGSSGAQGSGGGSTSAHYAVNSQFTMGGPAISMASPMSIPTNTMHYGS

PRMT5 = PRMT5 (Homo sapiens, UniProt O14744); test: IC50 and nH determination, PRMT5; format: biochemical; conditions: ratio of IC50 values
PRMT8 = PRMT8 (Homo sapiens, UniProt Q9NR22); test: IC50 and nH determination, PRMT8; format: biochemical; conditions: ratio of IC50 values
PRMT1 [1] = biological target: T2, PRMT1 (Homo sapiens, UniProt Q99873); test: Fluorescence titration of compound 50 by PRMT1; format: binding; conditions: excitation 620 nm
Meg01 cells = test: Cell viability assay; format: cell-based
HEL cells = test: Cell viability assay; format: cell-based
MOLM13 cells = test: Cell viability assay; format: cell-based
[2] = system: total protein arginine methylation in Meg01, MOLM13, and HEL cells; test: Western blot of total protein arginine methylation in treated leukemia cells; format: cell-based; conditions: 24 h of treatment; anti-methyl-R antibodies
PRMT1 [3] = biological target: T2, PRMT1; test: IC50 and nH determination, PRMT1; format: biochemical
His6x-PRMT1 = His6x-PRMT1 (Homo sapiens, UniProt Q99873); test: Single-dose inhibition study with PRMT1 enzyme; format: biochemical; conditions: compound at 10 μM, N.I. = no inhibition
His6x-PRMT1, sequence (Q99873 1-353 isoform Q99873-3): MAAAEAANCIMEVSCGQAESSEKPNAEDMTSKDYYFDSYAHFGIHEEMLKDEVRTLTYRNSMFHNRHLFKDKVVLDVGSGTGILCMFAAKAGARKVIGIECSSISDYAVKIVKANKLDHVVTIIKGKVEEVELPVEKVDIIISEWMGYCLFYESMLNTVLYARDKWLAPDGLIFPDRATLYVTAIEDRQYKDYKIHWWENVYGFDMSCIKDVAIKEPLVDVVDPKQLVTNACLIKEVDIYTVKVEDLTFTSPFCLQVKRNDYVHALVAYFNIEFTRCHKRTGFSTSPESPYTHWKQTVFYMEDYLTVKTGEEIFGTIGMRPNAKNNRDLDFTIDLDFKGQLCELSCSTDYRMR

T2 sequence (Q99873 1-353 isoform Q99873-3): as above
PRMT5, sequence (O14744 whole entry, species assumed): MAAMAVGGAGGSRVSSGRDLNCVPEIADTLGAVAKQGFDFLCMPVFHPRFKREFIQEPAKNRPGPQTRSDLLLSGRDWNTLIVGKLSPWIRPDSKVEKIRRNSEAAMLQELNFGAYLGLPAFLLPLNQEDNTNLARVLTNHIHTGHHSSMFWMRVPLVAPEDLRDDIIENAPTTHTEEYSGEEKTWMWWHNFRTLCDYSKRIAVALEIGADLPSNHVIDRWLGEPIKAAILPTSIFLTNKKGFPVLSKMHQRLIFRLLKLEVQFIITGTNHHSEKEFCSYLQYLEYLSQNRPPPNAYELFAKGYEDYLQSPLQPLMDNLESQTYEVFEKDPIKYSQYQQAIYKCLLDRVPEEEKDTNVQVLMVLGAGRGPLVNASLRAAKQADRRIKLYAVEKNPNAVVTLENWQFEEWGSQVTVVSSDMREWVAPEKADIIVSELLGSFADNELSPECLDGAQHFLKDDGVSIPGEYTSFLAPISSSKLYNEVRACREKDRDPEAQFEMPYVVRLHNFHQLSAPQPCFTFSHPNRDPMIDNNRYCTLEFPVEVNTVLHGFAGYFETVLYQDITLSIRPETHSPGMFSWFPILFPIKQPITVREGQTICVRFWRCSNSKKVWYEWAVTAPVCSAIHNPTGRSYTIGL
PRMT5, sequence (Q9BQA1 whole entry partner, species assumed): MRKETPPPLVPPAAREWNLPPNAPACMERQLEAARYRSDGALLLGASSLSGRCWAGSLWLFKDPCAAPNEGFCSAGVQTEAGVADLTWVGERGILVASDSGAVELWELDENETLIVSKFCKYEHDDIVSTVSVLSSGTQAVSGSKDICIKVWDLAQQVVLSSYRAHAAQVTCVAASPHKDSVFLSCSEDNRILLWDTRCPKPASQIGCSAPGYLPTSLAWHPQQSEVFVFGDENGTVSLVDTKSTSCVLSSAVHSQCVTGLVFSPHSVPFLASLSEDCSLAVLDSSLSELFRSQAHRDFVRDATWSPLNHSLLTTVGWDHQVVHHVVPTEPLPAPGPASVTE
PRMT8, sequence (Q9NR22 whole entry, species assumed): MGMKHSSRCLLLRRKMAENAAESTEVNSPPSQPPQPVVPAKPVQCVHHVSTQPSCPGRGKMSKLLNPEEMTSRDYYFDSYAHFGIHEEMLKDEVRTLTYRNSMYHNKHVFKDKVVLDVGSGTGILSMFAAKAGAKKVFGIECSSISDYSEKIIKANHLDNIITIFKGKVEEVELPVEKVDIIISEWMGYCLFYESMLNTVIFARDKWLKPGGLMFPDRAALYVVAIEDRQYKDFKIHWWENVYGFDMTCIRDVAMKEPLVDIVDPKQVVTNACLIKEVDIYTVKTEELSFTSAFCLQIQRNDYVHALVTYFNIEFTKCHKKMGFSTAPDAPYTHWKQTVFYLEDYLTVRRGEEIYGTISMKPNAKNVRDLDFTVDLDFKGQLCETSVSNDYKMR

selectivity for PRMT1 over CARM1 (CARM1/PRMT4): about 2 fold
selectivity for PRMT1 over PRMT5 (PRMT5): about 2 fold
selectivity for PRMT1 over PRMT8 (PRMT8): more than 9 fold
SMILES: C(/C=C/c1sc2c3ccccc3ccc2[n+]1CCCc1ccccc1)=C1/Sc2c(ccc3ccccc23)N1CCCc1ccccc1.[I-] [Compound 47, 3-(3-Phenylpropyl)-2-((1E,3Z)-3-(3-(3-phenylpropyl)naphtho[2,1-d]thiazol-2(3H)-ylidene)prop-1-en-1-yl)naphtho[2,1-d]thiazol-3-ium Iodide]

fluorescence intensity increase upon binding to PRMT1 (PRMT1 [1]): about 6 fold
SMILES: CCCCN1/C(=C/C=C(Br)/C=C/C2=[N+](CCCC)c3ccc(Br)cc3C2(C)C)C(C)(C)c2cc(Br)ccc21.[I-] [Compound 50, 5-Bromo-2-((1E,3Z)-3-bromo-5-((E)-5-bromo-1-butyl-3,3-dimethylindolin-2-ylidene)penta-1,3-dien-1-yl)-1-butyl-3,3-dimethyl-3H-indol-1-ium Iodide]
concentration that significantly inhibited leukemia cell growth (Meg01 cells): 100 nM
concentration that significantly inhibited leukemia cell growth (HEL cells): 200 nM
concentration that significantly inhibited leukemia cell growth (MOLM13 cells): 100 nM
total protein arginine methylation level [2]: significant loss of total protein arginine methylation

selectivity for PRMT1 over other PRMTs (CARM1, PRMT5, and PRMT8) (PRMT1 [3]; overall statement): no selectivity
SMILES: CC1(C)C(/C=C/C=C2/N(CCCc3ccccc3)c3ccc(Cl)cc3C2(C)C)=[N+](CCCc2ccccc2)c2ccc(Cl)cc21.[Br-] [Compound 24, 5-Chloro-2-((E)-3-((E)-5-chloro-3,3-dimethyl-1-(3-phenylpropyl)indolin-2-ylidene)prop-1-en-1-yl)-3,3-dimethyl-1-(3-phenylpropyl)-3H-indol-1-ium Bromide]

Inhibition (10 μM) (His6x-PRMT1; PRMT1, 10 µM): no inhibition
SMILES: CCCCN1/C(=C/C=C/C2=[N+](CCCC)c3ccccc3C2(C)C)C(C)(C)c2ccccc21.[I-] [Compound E-6]

inhibition at 10 µM (His6x-PRMT1; read-out: Inhibition (10 μM), PRMT1): 90%
SMILES: CCN1/C(=C/C(C)=C/c2sc3c4ccccc4ccc3[n+]2CC)Sc2c1ccc1ccccc21 [Compound 48, 3-Ethyl-2-((1E,3Z)-3-(3-ethylnaphtho[2,1-d]thiazol-2(3H)-ylidene)-2-methylprop-1-en-1-yl)naphtho[2,1-d]thiazol-3-ium Iodide]

fold more potent on PRMT1 than naphthothiazolium counterpart 47 (PRMT1 [3]; IC50 0.61 μM vs 3.05 μM): about 5 fold
SMILES: CC1(C)C(/C=C/C=C2/N(CCCc3ccccc3)c3ccc4ccccc4c3C2(C)C)=[N+](CCCc2ccccc2)c2ccc3ccccc3c21.[Br-] [Compound E-8]
